Test results as given in patent publication US20090018134A1, “Compounds - 945” (AstraZeneca AB, priority 2007, published 2009).

Biological target: T1, mTOR (Homo sapiens, UniProt P42345)
T1 construct: FLAG; made in house
Experiment: In Vitro mTOR Kinase Assay (Echo), Test (a)(ii)
Type: biochemical
Conditions: table of enzyme assay Test (a)(ii); read-out: Test (a)(ii) IC50
Procedure, shortened: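 Inhibition of truncated mTOR (1362-2549, FLAG-tagged, purified from stably transfected HEK293 cells) is measured as reduced AlphaScreen signal from a phospho-T389-recognising antibody bound to the biotinylated peptide product. Kinase incubation lasts 2 hours at room temperature. Potency is given as IC50.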

T1 sequence (P42345 1362-2549): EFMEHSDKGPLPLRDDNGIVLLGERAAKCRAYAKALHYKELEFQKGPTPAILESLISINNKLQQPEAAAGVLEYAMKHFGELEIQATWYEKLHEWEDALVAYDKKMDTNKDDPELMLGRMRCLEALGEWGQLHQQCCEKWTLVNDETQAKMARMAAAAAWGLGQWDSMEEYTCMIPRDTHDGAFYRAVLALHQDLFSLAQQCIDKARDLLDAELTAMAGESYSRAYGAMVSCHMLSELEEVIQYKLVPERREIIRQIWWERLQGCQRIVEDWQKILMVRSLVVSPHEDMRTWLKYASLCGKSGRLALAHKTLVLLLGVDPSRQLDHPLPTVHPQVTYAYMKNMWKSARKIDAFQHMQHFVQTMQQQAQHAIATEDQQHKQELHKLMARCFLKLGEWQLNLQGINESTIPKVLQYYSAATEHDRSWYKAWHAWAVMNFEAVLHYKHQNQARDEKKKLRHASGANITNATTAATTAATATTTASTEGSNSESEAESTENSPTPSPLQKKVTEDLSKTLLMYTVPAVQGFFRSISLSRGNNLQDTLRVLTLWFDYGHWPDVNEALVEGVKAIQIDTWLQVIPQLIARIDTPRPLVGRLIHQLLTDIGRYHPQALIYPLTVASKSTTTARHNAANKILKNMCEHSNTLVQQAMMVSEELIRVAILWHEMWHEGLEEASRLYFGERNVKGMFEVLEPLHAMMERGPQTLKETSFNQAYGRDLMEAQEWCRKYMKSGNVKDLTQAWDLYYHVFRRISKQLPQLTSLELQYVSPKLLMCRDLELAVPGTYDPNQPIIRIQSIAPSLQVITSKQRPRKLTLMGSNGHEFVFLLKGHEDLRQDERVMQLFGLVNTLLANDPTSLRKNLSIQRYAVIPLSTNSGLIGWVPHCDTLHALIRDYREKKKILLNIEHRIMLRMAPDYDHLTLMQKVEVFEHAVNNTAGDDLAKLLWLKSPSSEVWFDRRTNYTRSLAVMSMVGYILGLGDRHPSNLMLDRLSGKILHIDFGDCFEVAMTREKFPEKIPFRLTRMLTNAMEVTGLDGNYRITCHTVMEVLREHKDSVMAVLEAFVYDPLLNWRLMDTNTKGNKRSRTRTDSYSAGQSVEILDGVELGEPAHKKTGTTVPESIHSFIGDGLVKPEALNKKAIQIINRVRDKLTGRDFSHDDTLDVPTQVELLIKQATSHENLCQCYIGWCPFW

| IC50 [nM] | SMILES |
| --- | --- |
| 20.8 | CCNC(=O)Nc1ccc(-c2nc(N3CCOC[C@@H]3C)cc(C3(S(=O)(=O)c4ccc(F)cc4C)CC3)n2)cc1 [Example 82e, 3-ethyl-1-[4-[4-[1-(4-fluoro-2-methylphenyl)sulfonylcyclopropyl]-6-[(3S)-3-methylmorpholin-4-yl]pyrimidin-2-yl]phenyl]urea] |
| 27.3 | Cc1cc(F)ccc1S(=O)(=O)C1(c2cc(N3CCOC[C@@H]3C)nc(-c3ccc(NC(=O)Nc4cnn(C)c4)cc3)n2)CC1 [Example 82f, 1-[4-[4-[1-(4-fluoro-2-methylphenyl)sulfonylcyclopropyl]-6-[(3S)-3-methylmorpholin-4-yl]pyrimidin-2-yl]phenyl]-3-(1-methylpyrazol-4-yl)urea] |
| 3.46 | C[C@H]1COCCN1c1cc(C2(S(=O)(=O)c3ccncc3)CCC2)nc(-c2ccc(NC(=O)NCCO)cc2)n1 [Example 83, 3-(2-Hydroxyethyl)-1-[4-[4-[(3S)-3-methylmorpholin-4-yl]-6-(1-pyridin-4-ylsulfonylcyclobutyl)pyrimidin-2-yl]phenyl]urea] |
| 4.83 | C[C@@H](CO)NC(=O)Nc1ccc(-c2nc(N3CCOC[C@@H]3C)cc(C3(S(=O)(=O)c4ccncc4)CCC3)n2)cc1 [Example 83a, 3-[(2S)-1-hydroxypropan-2-yl]-1-[4-[4-[(3S)-3-methylmorpholin-4-yl]-6-(1-pyridin-4-ylsulfonylcyclobutyl)pyrimidin-2-yl]phenyl]urea] |
| 11.4 | C[C@H](CO)NC(=O)Nc1ccc(-c2nc(N3CCOC[C@@H]3C)cc(C3(S(=O)(=O)c4ccncc4)CCC3)n2)cc1 [Example 83b, 3-[(2R)-1-hydroxypropan-2-yl]-1-[4-[4-[(3S)-3-methylmorpholin-4-yl]-6-(1-pyridin-4-ylsulfonylcyclobutyl)pyrimidin-2-yl]phenyl]urea] |
| 12.4 | C[C@H]1COCCN1c1cc(C2(S(=O)(=O)c3ccncc3)CCC2)nc(-c2ccc(NC(=O)NC(C)(C)CO)cc2)n1 [Example 83c, 3-(1-hydroxy-2-methylpropan-2-yl)-1-[4-[4-[(3S)-3-methylmorpholin-4-yl]-6-(1-pyridin-4-ylsulfonylcyclobutyl)pyrimidin-2-yl]phenyl]urea] |
| 47.2 | C[C@H]1COCCN1c1cc(C2(S(=O)(=O)c3ccncc3)CCC2)nc(-c2ccc(NC(=O)NCc3ncc[nH]3)cc2)n1 [Example 83d, 3-(1H-imidazol-2-ylmethyl)-1-[4-[4-[(3S)-3-methylmorpholin-4-yl]-6-(1-pyridin-4-ylsulfonylcyclobutyl)pyrimidin-2-yl]phenyl]urea] |
| 9.56 | CC[C@H]1COCCN1c1cc(C2(S(C)(=O)=O)CC2)nc(-c2ccc(NC(=O)NC)cc2)n1 [Example 84, 1-[4-[4-[(3S)-3-Ethylmorpholin-4-yl]-6-(1-methylsulfonylcyclopropyl)pyrimidin-2-yl]phenyl]-3-methylurea] |
| 9.09 | CC[C@H]1COCCN1c1cc(C2(S(C)(=O)=O)CC2)nc(-c2ccc(NC(=O)NC3CC3)cc2)n1 [Example 84a, 3-cyclopropyl-1-[4-[4-[(3S)-3-ethylmorpholin-4-yl]-6-(1-methylsulfonylcyclopropyl)pyrimidin-2-yl]phenyl]urea] |
| 3.85 | CC[C@H]1COCCN1c1cc(C2(S(C)(=O)=O)CC2)nc(-c2ccc(NC(=O)NCCO)cc2)n1 [Example 84b, 1-[4-[4-[(3S)-3-ethylmorpholin-4-yl]-6-(1-methylsulfonylcyclopropyl)pyrimidin-2-yl]phenyl]-3-(2-hydroxyethyl)urea] |
| 8.29 | CC[C@H]1COCCN1c1cc(C2(S(C)(=O)=O)CC2)nc(-c2ccc(NC(=O)NCCF)cc2)n1 [Example 84c, 1-[4-[4-[(3S)-3-ethylmorpholin-4-yl]-6-(1-methylsulfonylcyclopropyl)pyrimidin-2-yl]phenyl]-3-(2-fluoroethyl)urea] |
| 9.59 | CC[C@H]1COCCN1c1cc(C2(S(C)(=O)=O)CC2)nc(-c2ccc(NC(=O)NCC(F)F)cc2)n1 [Example 84d, 3-(2,2-difluoroethyl)-1-[4-[4-[(3S)-3-ethylmorpholin-4-yl]-6-(1-methylsulfonylcyclopropyl)pyrimidin-2-yl]phenyl]urea] |
| 8.18 | CCNC(=O)Nc1ccc(-c2nc(N3CCOC[C@@H]3CC)cc(C3(S(C)(=O)=O)CC3)n2)cc1 [Example 84e, 3-ethyl-1-[4-[4-[(3S)-3-ethylmorpholin-4-yl]-6-(1-methylsulfonylcyclopropyl)pyrimidin-2-yl]phenyl]urea] |
| 13.4 | CC[C@H]1COCCN1c1cc(C2(S(C)(=O)=O)CC2)nc(-c2ccc(NC(=O)Nc3cnn(C)c3)cc2)n1 [Example 84f, 1-[4-[4-[(3S)-3-ethylmorpholin-4-yl]-6-(1-methylsulfonylcyclopropyl)pyrimidin-2-yl]phenyl]-3-(1-methylpyrazol-4-yl)urea] |
| 4.77 | CNC(=O)Nc1ccc(-c2nc(N3CCOC[C@@H]3C)cc(C3(S(=O)(=O)c4ccc(C(N)=O)cc4Cl)CC3)n2)cc1 [Example 85, 3-Chloro-4-[1-[2-[4-(methylcarbamoylamino)phenyl]-6-[(3S)-3-methylmorpholin-4-yl]pyrimidin-4-yl]cyclopropyl]sulfonylbenzamide] |
| 3.13 | CCNC(=O)Nc1ccc(-c2nc(N3CCOC[C@@H]3C)cc(C3(S(=O)(=O)c4ccc(C(N)=O)cc4Cl)CC3)n2)cc1 [Example 85a, 3-chloro-4-[1-[2-[4-(ethylcarbamoylamino)phenyl]-6-[(3S)-3-methylmorpholin-4-yl]pyrimidin-4-yl]cyclopropyl]sulfonylbenzamide] |
| 5.26 | C[C@H]1COCCN1c1cc(C2(S(=O)(=O)c3ccc(C(N)=O)cc3Cl)CC2)nc(-c2ccc(NC(=O)NC3CC3)cc2)n1 [Example 85b, 3-chloro-4-[1-[2-[4-(cyclopropylcarbamoylamino)phenyl]-6-[(3S)-3-methylmorpholin-4-yl]pyrimidin-4-yl]cyclopropyl]sulfonylbenzamide] |
| 5.09 | C[C@H]1COCCN1c1cc(C2(S(=O)(=O)c3ccc(C(N)=O)cc3Cl)CC2)nc(-c2ccc(NC(=O)NCCF)cc2)n1 [Example 85c, 3-chloro-4-[1-[2-[4-(2-fluoroethylcarbamoylamino)phenyl]-6-[(3S)-3-methylmorpholin-4-yl]pyrimidin-4-yl]cyclopropyl]sulfonylbenzamide] |
| 3.23 | C[C@H]1COCCN1c1cc(C2(S(=O)(=O)c3ccc(C(N)=O)cc3Cl)CC2)nc(-c2ccc(NC(=O)NCCO)cc2)n1 [Example 85d, 3-chloro-4-[1-[2-[4-(2-hydroxyethylcarbamoylamino)phenyl]-6-[(3S)-3-methylmorpholin-4-yl]pyrimidin-4-yl]cyclopropyl]sulfonylbenzamide] |
| 18.3 | CNC(=O)Nc1ccc(-c2nc(N3CCOC[C@@H]3C)cc(C3(S(=O)(=O)c4ccc(C#N)cc4Cl)CC3)n2)cc1 [Example 85e, 1-[4-[4-[1-(2-chloro-4-cyanophenyl)sulfonylcyclopropyl]-6-[(3S)-3-methylmorpholin-4-yl]pyrimidin-2-yl]phenyl]-3-methylurea] |
| 20.2 | CCNC(=O)Nc1ccc(-c2nc(N3CCOC[C@@H]3C)cc(C3(S(=O)(=O)c4ccc(C#N)cc4Cl)CC3)n2)cc1 [Example 85f, 3-[4-[4-[1-(2-chloro-4-cyanophenyl)sulfonylcyclopropyl]-6-[(3S)-3-methylmorpholin-4-yl]pyrimidin-2-yl]phenyl]-1-ethylurea] |
| 25.9 | C[C@H]1COCCN1c1cc(C2(S(=O)(=O)c3ccc(C#N)cc3Cl)CC2)nc(-c2ccc(NC(=O)NC3CC3)cc2)n1 [Example 85g, 1-[4-[4-[1-(2-chloro-4-cyanophenyl)sulfonylcyclopropyl]-6-[(3S)-3-methylmorpholin-4-yl]pyrimidin-2-yl]phenyl]-3-cyclopropylurea] |
| 42.6 | C[C@H]1COCCN1c1cc(C2(S(=O)(=O)c3ccc(C#N)cc3Cl)CC2)nc(-c2ccc(NC(=O)NCC(F)F)cc2)n1 [Example 85h, 1-[4-[4-[1-(2-chloro-4-cyanophenyl)sulfonylcyclopropyl]-6-[(3S)-3-methylmorpholin-4-yl]pyrimidin-2-yl]phenyl]-3-(2,2-difluoroethyl)urea] |
| 15.3 | C[C@H]1COCCN1c1cc(C2(S(=O)(=O)c3ccc(C#N)cc3Cl)CC2)nc(-c2ccc(NC(=O)NCCF)cc2)n1 [Example 85i, 1-[4-[4-[1-(2-chloro-4-cyanophenyl)sulfonylcyclopropyl]-6-[(3S)-3-methylmorpholin-4-yl]pyrimidin-2-yl]phenyl]-3-(2-fluoroethyl)urea] |
| 12.4 | C[C@H]1COCCN1c1cc(C2(S(=O)(=O)c3ccc(C#N)cc3Cl)CC2)nc(-c2ccc(NC(=O)NCCO)cc2)n1 [Example 85j, 1-[4-[4-[1-(2-chloro-4-cyanophenyl)sulfonylcyclopropyl]-6-[(3S)-3-methylmorpholin-4-yl]pyrimidin-2-yl]phenyl]-3-(2-hydroxyethyl)urea] |
| 2.47 | CNC(=O)Nc1ccc(-c2nc(N3CCOC[C@@H]3C)cc(C3(S(=O)(=O)c4c(F)cccc4F)CC3)n2)cc1 [Example 86, 1-[4-[4-[1-(2,6-Difluorophenyl)sulfonylcyclopropyl]-6-[(3S)-3-methylmorpholin-4-yl]pyrimidin-2-,yl]phenyl]-3-methylurea] |
| 5.22 | CCNC(=O)Nc1ccc(-c2nc(N3CCOC[C@@H]3C)cc(C3(S(=O)(=O)c4c(F)cccc4F)CC3)n2)cc1 [Example 86a, 1-[4-[4-[1-(2,6-difluorophenyl)sulfonylcyclopropyl]-6-[(3S)-3-methylmorpholin-4-yl]pyrimidin-2-yl]phenyl]-3-ethylurea] |
| 7.25 | C[C@H]1COCCN1c1cc(C2(S(=O)(=O)c3c(F)cccc3F)CC2)nc(-c2ccc(NC(=O)NC3CC3)cc2)n1 [Example 86b, 3-cyclopropyl-1-[4-[4-[1-(2,6-difluorophenyl)sulfonylcyclopropyl]-6-[(3S)-3-methylmorpholin-4-yl]pyrimidin-2-yl]phenyl]urea] |
| 2.47 | C[C@H]1COCCN1c1cc(C2(S(=O)(=O)c3c(F)cccc3F)CC2)nc(-c2ccc(NC(=O)NCCO)cc2)n1 [Example 86c, 1-[4-[4-[1-(2,6-difluorophenyl)sulfonylcyclopropyl]-6-[(3S)-3-methylmorpholin-4-yl]pyrimidin-2-yl]phenyl]-3-(2-hydroxyethyl)urea] |
